Test results taken from paper PMC11562961, “An activity-based probe for antimicrobial target DXP synthase, a thiamin diphosphate-dependent enzyme” (Frontiers in chemical biology, 2024).

Target: T1, 1-deoxy-D-xylulose 5-phosphate synthase (DXPS) (Escherichia coli, UniProt P77488)
T1 construct: gene dxs
T1 sequence (P77488 2-620): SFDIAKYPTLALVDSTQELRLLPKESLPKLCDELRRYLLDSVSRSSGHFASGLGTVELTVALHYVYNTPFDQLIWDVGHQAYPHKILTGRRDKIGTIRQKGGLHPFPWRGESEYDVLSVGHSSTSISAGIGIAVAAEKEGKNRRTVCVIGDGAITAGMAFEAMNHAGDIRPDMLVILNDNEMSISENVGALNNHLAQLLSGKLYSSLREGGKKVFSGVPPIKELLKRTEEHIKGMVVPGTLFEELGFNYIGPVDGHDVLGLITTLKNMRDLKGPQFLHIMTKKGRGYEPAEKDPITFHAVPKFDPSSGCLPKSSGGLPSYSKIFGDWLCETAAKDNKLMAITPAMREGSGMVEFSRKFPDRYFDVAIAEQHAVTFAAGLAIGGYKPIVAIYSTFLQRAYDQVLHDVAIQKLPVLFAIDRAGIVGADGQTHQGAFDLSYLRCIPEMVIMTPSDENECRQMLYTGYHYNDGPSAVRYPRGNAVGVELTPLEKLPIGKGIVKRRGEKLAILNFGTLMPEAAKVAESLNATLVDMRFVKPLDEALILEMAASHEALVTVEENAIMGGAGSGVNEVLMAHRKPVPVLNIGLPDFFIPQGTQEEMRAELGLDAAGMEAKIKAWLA
Test: DXPS-IspC coupled assay (Morrison Ki); also CD detection of the PLThDP adduct and photo-crosslink in-gel fluorescence labeling
Type: biochemical

For C#CCCC1(CCOP(=O)(O)C(C)=O)N=N1 [compound 1, ABP 1], the Ki was 1600 ± 220 nM.
